Test results taken from ChEMBL document CHEMBL5608185, “Design, synthesis and evaluation of carbamate-bridged amino acid prodrugs of cycloicaritin with improved antitumor activity, aqueous solubility and phase II metabolic stability” (Eur J Med Chem, 2024).
In brackets after ≈: the same amount, converted by molar mass.

Experiments:
[1] = Stability in rat liver microsomes assessed as parent compound remaining at 10 uM measured after 70 mins by HPLC-UV analysis; format: ADME, Microsome; details: read-out: Stability
[2] = Octanol/water partition coefficient, logP of the compound incubated for 72 hrs by HPLC-MS/MS analysis; format: physicochemical
[3] = Drug uptake in human Caco-2 cells over 1 to 100 uM incubated for 10 mins by HPLC-MS/MS analysis; format: ADME, cell-based; details: caco-2, 10 min, dose 1-100 µM
[4] = Chemical stability of the compound assessed as half life at pH 7.4 by HPLC analysis; format: physicochemical; details: buffer
[5] = Stability in Sprague-Dawley rat liver homogenates assessed as half life at pH 7.4 by HPLC analysis; format: ADME, tissue-based
[6] = Chemical stability of the compound assessed as half life at pH 6.8 by HPLC analysis; format: physicochemical; details: buffer
[7] = Chemical stability of the compound in simulated gastric fluid assessed as half life by HPLC analysis; format: ADME, physicochemical
[8] = Stability in Sprague-Dawley rat intestine homogenates assessed as half life at pH 7.4 by HPLC analysis; format: ADME, tissue-based
[9] = Chemical stability of the compound assessed as half life at pH 1.2 by HPLC analysis; format: physicochemical; details: buffer
[10] = Chemical stability of the compound in simulated intestinal fluid assessed as half life by HPLC analysis; format: ADME, physicochemical
[11] = Stability at phase II in rat liver microsomes assessed as half life at 10 uM measured every 10 mins for 70 mins by HPLC-UV analysis; format: ADME, Microsome
[12] = Chemical stability of the compound assessed as half life at pH 4.5 by HPLC analysis; format: physicochemical; details: buffer
[13] = Aqueous solubility of the compound incubated for 72 hrs by shake-flask method; format: physicochemical; details: buffer
[14] = Stability in Sprague-Dawley rat blood homogenates assessed as half life at pH 7.4 by HPLC analysis; format: ADME, tissue-based
[15] = Drug uptake in human Caco-2 cells at 5 uM at pH 7.4 incubated for 10 mins by HPLC-MS/MS analysis; format: ADME, cell-based; details: caco-2, pH 7.4, 10 min
[16] = Drug uptake in human Caco-2 cells at 5 uM incubated for 10 mins in presence of fexofenadine by HPLC-MS/MS analysis; format: ADME, cell-based; details: caco-2, 10 min
[17] = Drug uptake in human Caco-2 cells at 5 uM incubated for 10 mins in presence of Estrone-3-sulfate by HPLC-MS/MS analysis; format: ADME, cell-based; details: caco-2, 10 min
[18] = Oral bioavailability in rat; format: ADME, organism-based; details: in vivo

remaining at 1.167 h, 10 µM [1] | logP at 72 h [2] | Drug uptake [3] | half-life [4] | half-life [5] | half-life [6] | half-life [7] | half-life [8] | half-life [9] | half-life [10] | half-life at 10 µM [11] | half-life [12] | solubility thermodynamic at 72 h [13] | half-life [14] | Drug uptake [15] | Drug uptake [16] | Drug uptake [17] | bioavailability [18] | SMILES
76% | 3.66 | Not Active | 1.96 h | 1.96 h | 5.21 h | > 12 h | 1.89 h | > 12 h | 5.24 h | > 1.16 h | > 12 h | 3.64 µM (≈ 1.71 µg/mL) | 0.25 h |  |  |  |  | COc1ccc(-c2oc3c4c(cc(O)c3c(=O)c2OC(=O)NCC(=O)O)OC(C)(C)CC4)cc1
76% | 2.75 | Not Active | 8.17 h | 7.99 h | > 12 h | > 12 h | 7.22 h | > 12 h | > 12 h | > 1.16 h | > 12 h | 5.69 µM (≈ 2.91 µg/mL) | 0.47 h | Not Active | Not Active | Not Active |  | COc1ccc(-c2oc3c4c(cc(O)c3c(=O)c2OC(=O)N[C@H](C(=O)O)C(C)C)OC(C)(C)CC4)cc1
 |  |  |  |  |  |  |  |  |  |  |  |  |  |  |  |  | 4.3% | COc1ccc(-c2oc3c(CC=C(C)C)c(O)cc(O)c3c(=O)c2O)cc1 [ICARITIN]
76% | 4.33 | Not Active | 6.09 h | 6.04 h | > 12 h | > 12 h | 5.85 h | > 12 h | > 12 h | > 1.16 h | > 12 h | 2.68 µM (≈ 1.5 µg/mL) | 0.45 h |  |  |  |  | COc1ccc(-c2oc3c4c(cc(O)c3c(=O)c2OC(=O)N[C@@H](Cc2ccccc2)C(=O)O)OC(C)(C)CC4)cc1
